pIC50: −log10 of the molar value.
target: IgE-Tb / sFcεRIα-Y131A-AF488 (Homo sapiens, UniProt P01854, N146Q/N252Q); test: IgE-Tb / sFcεRIα-Y131A-AF488 FRET assay (protocol for examples 234 to 501); type: binding; conditions: examples 234 to 501: compound with IgE-Tb 30 minutes before sFcεRIα-Y131A-AF488, incubated 18 hours at room temperature; read-out: Y131A FRET IC50 range
How it was run: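 Compounds (10-point 3-fold series, top usually 10 μM, 2% DMSO) preincubated 30 min with 5 nM IgE-Tb, then 25 nM sFcεRIα-Y131A-AF488 added; 18 h at room temperature in the dark. TR-FRET ratio 520/490 nm after 337 nm excitation, background-subtracted; IC50 by four-parameter logistic fit.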

Chain of IgE-Tb / sFcεRIα-Y131A-AF488 (P01854 whole entry N146Q/N252Q): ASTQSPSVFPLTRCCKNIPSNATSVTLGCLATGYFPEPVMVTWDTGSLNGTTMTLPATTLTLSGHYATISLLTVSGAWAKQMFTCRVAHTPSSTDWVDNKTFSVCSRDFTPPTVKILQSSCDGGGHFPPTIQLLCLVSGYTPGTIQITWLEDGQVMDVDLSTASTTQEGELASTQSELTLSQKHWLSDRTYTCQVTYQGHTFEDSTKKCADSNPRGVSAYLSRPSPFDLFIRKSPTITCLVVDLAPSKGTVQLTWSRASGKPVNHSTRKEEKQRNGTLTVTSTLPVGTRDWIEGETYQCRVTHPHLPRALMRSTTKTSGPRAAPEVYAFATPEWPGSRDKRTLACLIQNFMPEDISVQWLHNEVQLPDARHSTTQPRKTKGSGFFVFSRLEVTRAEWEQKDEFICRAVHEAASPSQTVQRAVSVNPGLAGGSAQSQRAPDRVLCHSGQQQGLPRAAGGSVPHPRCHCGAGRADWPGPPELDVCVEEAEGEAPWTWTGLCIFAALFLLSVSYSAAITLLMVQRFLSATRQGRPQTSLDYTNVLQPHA

Structure (SMILES) | pIC50
Cn1nc(OC(F)(F)F)cc1Nc1nncn1[C@H]1CCc2sc(NC(=O)C3CC3)c(C(=O)NCC3CC3)c2C1 [Example 294, (5S)-2-(cyclopropanecarbonylamino)-N-(cyclopropylmethyl)-5-[3-[[2-methyl-5-(trifluoromethoxy)pyrazol-3-yl]amino]-1,2,4-triazol-4-yl]-4,5,6,7-tetrahydrobenzothiophene-3-carboxamide] | > 6.00
Cn1nc(OC(F)(F)Cl)cc1Nc1nncn1[C@H]1CCc2sc(NC(=O)C3CC3)c(C(=O)NCC3CC3)c2C1 [Example 295, (5S)-5-[3-[[5-[chloro(difluoro)methoxy]-2-methyl-pyrazol-3-yl]amino]-1,2,4-triazol-4-yl]-2-(cyclopropanecarbonylamino)-N-(cyclopropylmethyl)-4,5,6,7-tetrahydrobenzothiophene-3-carboxamide] | > 6.00
Cc1nnc(-c2cc(Nc3nncn3[C@H]3CCc4sc(NC(=O)C5CC5)c(C(=O)NCC5CC5)c4C3)n(C)n2)o1 [Example 296, (5S)-2-cyclopropaneamido-N-(cyclopropylmethyl)-5-(3-{[1-methyl-3-(5-methyl-1,3,4-oxadiazol-2-yl)-1H-pyrazol-5-yl]amino}-4H-1,2,4-triazol-4-yl)-4,5,6,7-tetrahydro-1-benzothiophene-3-carboxamide] | > 6.00
COc1cnc(Nc2nncn2[C@H]2CCc3sc(NC(=O)C4CC4)c(C(=O)NCC4CC4)c3C2)c(C)n1 [Example 297, (5S)-2-(cyclopropanecarbonylamino)-N-(cyclopropylmethyl)-5-[3-[(5-methoxy-3-methyl-pyrazin-2-yl)amino]-1,2,4-triazol-4-yl]-4,5,6,7-tetrahydrobenzothiophene-3-carboxamide] | > 6.00
Cc1ccc2nc(N[C@H]3CCc4sc(NC(=O)C5CC5)c(C(=O)NCC5CC5)c4C3)sc2n1 [Example 298, (5S)-2-(cyclopropanecarbonylamino)-N-(cyclopropylmethyl)-5-[(5-methylthiazolo[5,4-b]pyridin-2-yl)amino]-4,5,6,7-tetrahydrobenzothiophene-3-carboxamide] | > 6.00
Cc1ncc(C#N)cc1Nc1nncn1[C@H]1CCc2sc(NC(=O)C3CC3)c(C(=O)NCC3CC3)c2C1 [Example 299, (5S)-5-[3-[(5-cyano-2-methyl-3-pyridyl)amino]-1,2,4-triazo-4-yl]-2-(cyclopropanecarbonylamino)-N-(cyclopropylmethyl)-4,5,6,7-tetrahydrobenzothiophene-3-carboxamide] | > 6.00
Cc1nc(C#N)ccc1Nc1nncn1[C@H]1CCc2sc(NC(=O)C3CC3)c(C(=O)NCC3CC3)c2C1 [Example 300, (5S)-5-[3-[(6-cyano-2-methyl-3-pyridyl)amino]-1,2,4-triazol-4-yl]-2-(cyclopropanecarbonylamino)-N-(cyclopropylmethyl)-4,5,6,7-tetrahydrobenzothiophene-3-carboxamide] | > 6.00
Cn1ccc(Nc2nncn2[C@H]2CCc3sc(NC(=O)C4CC4)c(C(=O)NCC4CC4)c3C2)cc1=O [Example 301, (5S)-2-(cyclopropanecarbonylamino)-N-(cyclopropylmethyl)-5-[3-[(1-methyl-2-oxo-4-pyridyl)amino]-1,2,4-triazol-4-yl]-4,5,6,7-tetrahydrobenzothiophene-3-carboxamide] | > 6.00
Cc1nc(Cl)ccc1Nc1nncn1[C@H]1CCc2sc(NC(=O)C3CC3)c(C(=O)NCC3CC3)c2C1 [Example 302, (5S)-5-[3-[(6-chloro-2-methyl-3-pyridyl)amino]-1,2,4-triazol-4-yl]-2-(cyclopropanecarbonylamino)-N-(cyclopropylmethyl)-4,5,6,7-tetrahydrobenzothiophene-3-carboxamide] | > 6.00
Cc1nc(C(F)(F)F)ccc1Nc1nncn1[C@H]1CCc2sc(NC(=O)C3CC3)c(C(=O)NCC3CC3)c2C1 [Example 303, (5S)-2-(cyclopropanecarbonylamino)-N-(cyclopropylmethyl)-5-[3-[[2-methyl-6-(trifluoromethyl)-3-pyridyl]amino]-1,2,4-triazol-4-yl]-4,5,6,7-tetrahydrobenzothiophene-3-carboxamide] | > 6.00
Cc1nnccc1Nc1nncn1[C@H]1CCc2sc(NC(=O)C3CC3)c(C(=O)NCC3CC3)c2C1 [Example 304, (5S)-2-(cyclopropanecarbonylamino)-N-(cyclopropylmethyl)-5-[3-[(3-methylpyridazin-4-yl)amino]-1,2,4-triazol-4-yl]-4,5,6,7-tetrahydrobenzothiophene-3-carboxamide] | > 6.00
Cn1nc(Cl)cc1Nc1nncn1[C@H]1CCc2sc(NC(=O)C3CC3)c(C(=O)NCC3CC3)c2C1 [Example 305, (5S)-5-[3-[(5-chloro-2-methyl-pyrazol-3-yl)amino]-1,2,4-triazol-4-yl]-2-(cyclopropanecarbonylamino)-N-(cyclopropylmethyl)-4,5,6,7-tetrahydrobenzothiophene-3-carboxamide] | > 6.00
C[C@@H]1C[C@@H]1C(=O)Nc1sc2c(c1C(=O)NCC1CC1)C[C@@H](n1cnnc1Nc1cc(OC(F)F)nn1C)CC2 [Example 306, (5S)—N-(cyclopropylmethyl)-5-[3-[[5-(difluoromethoxy)-2-methyl-pyrazol-3-yl]amino]-1,2,4-triazol-4-yl]-2-[[(1S,2R)-2-methylcyclopropanecarbonyl]amino]-4,5,6,7-tetrahydrobenzothiophene-3-carboxamide] | > 6.00
Cc1nscc1Nc1nncn1[C@H]1CCc2sc(NC(=O)C3CC3)c(C(=O)NCC3CC3)c2C1 [Example 307, (5S)-2-(cyclopropanecarbonylamino)-N-(cyclopropylmethyl)-5-[3-[(3-methylisothiazol-4-yl)amino]-1,2,4-triazol-4-yl]-4,5,6,7-tetrahydrobenzothiophene-3-carboxamide] | > 6.00
Cc1nocc1Nc1nncn1[C@H]1CCc2sc(NC(=O)C3CC3)c(C(=O)NCC3CC3)c2C1 [Example 308, (5S)-2-(cyclopropanecarbonylamino)-N-(cyclopropylmethyl)-5-[3-[(3-methylisoxazol-4-yl)amino]-1,2,4-triazol-4-yl]-4,5,6,7-tetrahydrobenzothiophene-3-carboxamide] | > 6.00
Cn1nc(OCC2CC2)cc1Nc1nncn1[C@H]1CCc2sc(NC(=O)[C@H]3C[C@@H]3F)c(C(=O)NCC3CC3)c2C1 [Example 309, (5S)-5-[3-[[5-(cyclopropylmethoxy)-2-methyl-pyrazol-3-yl]amino]-1,2,4-triazol-4-yl]-N-(cyclopropylmethyl)-2-[[(1R,2S)-2-fluorocyclopropanecarbonyl]amino]-4,5,6,7-tetrahydrobenzothiophene-3-carboxamide] | > 6.00
CCOc1cc(Nc2nncn2[C@H]2CCc3sc(NC(=O)[C@H]4C[C@@H]4F)c(C(=O)NCC4CC4)c3C2)n(C)n1 [Example 310, (5S)—N-(cyclopropylmethyl)-5-[3-[(5-ethoxy-2-methyl-pyrazol-3-yl)amino]-1,2,4-triazol-4-yl]-2-[[(1R,2S)-2-fluorocyclopropanecarbonyl]amino]-4,5,6,7-tetrahydrobenzothiophene-3-carboxamide] | > 6.00
Cn1nc(C(F)(F)F)cc1Nc1nncn1[C@H]1CCc2sc(NC(=O)[C@H]3C[C@H]3F)c(C(=O)NCC3CC3)c2C1 [Example 312, (5S)—N-(cyclopropylmethyl)-2-[[(1R,2R)-2-fluorocyclopropanecarbonyl]amino]-5-[3-[[2-methyl-5-(trifluoromethyl)pyrazol-3-yl]amino]-1,2,4-triazol-4-yl]-4,5,6,7-tetrahydrobenzothiophene-3-carboxamide] | > 6.00
Cn1nc(OC(F)F)cc1Nc1nncn1[C@H]1CCc2sc(NC(=O)[C@H]3C[C@@H]3F)c(C(=O)NCC3CC3)c2C1 [Example 313, (5S)—N-(cyclopropylmethyl)-5-[3-[[5-(difluoromethoxy)-2-methyl-pyrazol-3-yl]amino]-1,2,4-triazol-4-yl]-2-[[(1R,2S)-2-fluorocyclopropanecarbonyl]amino]-4,5,6,7-tetrahydrobenzothiophene-3-carboxamide] | > 6.00
Cn1nc(OC(F)F)cc1Nc1nncn1[C@H]1CCc2sc(NC(=O)[C@H]3C[C@@H]3F)c(C(=O)NC[C@@H]3C[C@@H]3F)c2C1 [Example 322, (5S)-5-[3-[[5-(difluoromethoxy)-2-methylpyrazol-3-yl]amino]-1,2,4-triazol-4-yl]-2-[[(1R,2S)-2-fluorocyclopropanecarbonyl]amino]-N-[[(1S,2S)-2-fluorocyclopropyl]methyl]-4,5,6,7-tetrahydro-1-benzothiophene-3-carboxamide] | > 6.00
Cc1nscc1Nc1nncn1[C@H]1CCc2sc(NC(=O)C3CC34CC4)c(C(=O)NCC3CC3)c2C1 (stereo partly drawn) [Example 329, (5S)—N-(cyclopropylmethyl)-5-[3-[(3-methyl-1,2-thiazol-4-yl)amino]-1,2,4-triazol-4-yl]-2-(spiro[2.2]pentane-2-carbonylamino)-4,5,6,7-tetrahydro-1-benzothiophene-3-carboxamide] | > 6.00
COc1cc(Nc2nncn2[C@H]2CCc3sc(NC(=O)C4CC4)c(C(=O)NCC4CC4)c3C2)n(C)n1 [Example 337, (5S)-2-(cyclopropanecarbonylamino)-N-(cyclopropylmethyl)-5-[3-[(5-methoxy-2-methylpyrazol-3-yl)amino]-1,2,4-triazol-4-yl]-4,5,6,7-tetrahydro-1-benzothiophene-3-carboxamide] | > 6.00
Cn1nc(OC(F)F)cc1Nc1nncn1[C@H]1CCc2sc(NC(=O)[C@H]3C[C@H](F)C3)c(C(=O)NCC3CC3)c2C1 [Example 343, (5S)—N-(cyclopropylmethyl)-5-[3-[[5-(difluoromethoxy)-2-methylpyrazol-3-yl]amino]-1,2,4-triazol-4-yl]-2-[trans-(3-fluorocyclobutanecarbonyl)amino]-4,5,6,7-tetrahydro-1-benzothiophene-3-carboxamide] | > 6.00

Reference: patent publication US12018021B2 (UCB Biopharma SRL, priority 2018, dated 2024)
